Columns and labels:
[1] = target: T1, XOR (Rattus norvegicus, UniProt P22985); assay: Xanthine oxidoreductase assay, lung tissue extracts of cytokine insufflated rats; type: in vivo; conditions: for induction of total lung XOR activity: 24 hours following intratracheal cytokine insufflation (50 ng per rat) compared to saline alone (FIG. 1a); for lung O-form XOR content: lungs 24 h after insufflation, untreated 23%, saline 42% (FIG. 1d)
T1 construct: Total XOR activity in lung and liver tissue was determined using whole tissue protein extracts; from tissue; host or cells: lung (and liver) of Sprague-Dawley rats
Protocol: (§1) Intratracheal cytokine insufflation.
(§2) Xanthine oxidoreductase assay. Total XOR activity in lung and liver tissue was determined using whole tissue protein extracts. Briefly, tissues that had been perfused blood free were placed into liquid N2 and stored at −80° C. prior to generating enzyme extracts. Enzyme extracts were prepared by placing frozen specimens in extract buffer (100 mM K-Phosphate, pH 7.8, 1 mM EDTA, 1 mM PMSF). Tissues were thawed in extract buffer on ice and minced. Minced tissues were broken in a rotating dounce using exactly three strokes of the pestle. Tissue homogenates were then centrifuged at 15,000×g at 4° C. for 30 min. Clarified extracts were desalted on 2 cm×20 cm Sephadex G25 columns to remove low molecular weight substances that potentially interfere with enzyme activity (48), and 3 ml of the flow through front were collected. Allopurinol inhibitable XOR activity was determined spectroscopically by measuring uric acid formation from xanthine at 290 nm. The stability of uric acid added to the flow through fraction was determined in the presence and absence of the uricase inhibitor, oxonic acid (OA). […] Evaluation of D-form XOR and O-form XOR was determined by measuring enzymatic activity in the presence and absence of NAD+(49).

[2] = target: T1, XOR; assay: XOR activity in BALF cells / adherent MNP of cytokine insufflated rats; conditions: in vivo
Protocol: as §1
as §2, with “Clarified extracts were desalted on 2 cm×20 cm Sephadex G25 columns to remove low molecular weight substances that potentially interfere with enzyme activity (48), and 3 ml of the flow through front were collected.” left out
Neutrophils and MNP were recovered from the BALF 24 hours following IL-1 and IFN-γ insufflation and purified on Percoll gradients. […] Although XOR was induced over a 24 hour period in the infiltrating MNP recovered from the lungs of IL-1 and IFN-γ insufflated rats, neither XOR activity or antigen was detected in circulating rat monocytes (not shown). […]

[3] = test system: IL-1 and IFN-γ insufflated rats; assay: Differential and total inflammatory cell counts in BALF after cytokine insufflation; type: in vivo, rat; conditions: for accumulation of inflammatory cells (BALF cell numbers): diet before IL-1 and IFN-γ insufflation, 24 hours later, allopurinol 50 mg/Kg for seven days (FIG. 4c); for macrophages in BALF (differential analysis) / neutrophils in BALF (differential analysis): 24 hours following insufflation
From the text: as §1

[4] = test system: alveolar cells; assay: TUNEL staining and morphometric analysis; type: in vivo, rat; conditions: prior feeding with diet, IL-1 and IFN-γ insufflation 24 h before (FIG. 4f,g)
Protocol: TUNEL staining and morphometric analysis. The TUNEL assay was used to detect apoptotic cells in fixed lung sections. After fixation with 4% buffered formalin, lung tissue sections were embedded in paraffin, sectioned at […], and mounted on glass slides. Slides were de-paraffinized, rehydrated for 10 min in PBS, and treated with 0.002% proteinase K (Sigma) in distilled water for 5 to 15 min at room temperature. Terminal deoxynucleotidyl transferase (TdT) was used for labeling of DNA nicks using the TACS kit (Trevigen, Inc., Gaithersburg, Md.). Counterstaining with DAPI was done to stain nuclear DNA and with Rhodamine coupled wheat germ agglutinin (WGA, Molecular Probes, Eugene, Oreg.) to stain the structural architecture. TUNEL positive cell staining appeared as green fluorescence in the nuclei of clearly defined alveolar cells. Background nuclear staining appeared as blue while the tissue architecture was red.

[5] = test system: caspase-3; assay: Activated caspase-3 detection in lung sections; type: in vivo, rat; conditions: prior feeding with diet, IL-1 and IFN-γ insufflation 24 hours before (FIG. 4h)
Protocol: Activated caspase-3 detection. Detection of the cleaved, mature, activated caspase-3 was performed on paraffin-embedded sections using the Cell Signaling Technology, Inc (Beverly, Mass.) protocol. First, paraffin-embedded slides were deparaffinized and rehydrated. Incubation with 1% H2O2 for 10 min blocked endogenous peroxidase activity. For antigen unmasking, the tissue sections were microwaved in 10 mM sodium citrate buffer (pH 6.0) for 10 min. Next, the sections were blocked in 5% goat serum for 1 hr at room temperature. Slides were then incubated at 4° C. overnight with caspase-3 antibody specific for the cleaved, mature, form of caspase-3 diluted 1:200 in phosphate buffered saline (Asp-175; Cell Signaling Technology, Inc). This was followed by a 30 min incubation with a 1:200 dilution of goat anti-rabbit antibody (PK-6101; Vector Laboratories, Burlingame, Calif.). A subsequent 30 min incubation with VectaStain Elite ABC reagent (PK-6101; Vector Laboratories) ensued. This reaction was followed by the addition of the DAB substrate kit for peroxidase (SK-4100; Vector Labs). The slides were finally counterstained with hematoxylin (H-3401; Vector Labs), dehydrated and mounted. Caspase-3 positive cells were quantitated by counting the percent positive alveolar cells per field under 100× magnification.

[6] = test system: XOR; conditions: cited from earlier work
[7] = test system: IL-1 and IFN-γ insufflated rats; assay: Lung histology (H&E) after cytokine insufflation; conditions: diet before IL-1 and IFN-γ insufflation, 24 hours later (FIG. 4d)
[8] = target: T2, O-form XOR (Rattus norvegicus, UniProt P22985); assay: DTT reduction of O-form XOR in soluble lung protein extracts; type: biochemical; conditions: 5 nM DTT at 37° C. for one hour, re-chromatographed on sephadex G25 (FIG. 1e)
T2 construct: Total XOR activity in lung and liver tissue was determined using whole tissue protein extracts; from tissue; host or cells: lung (and liver) of Sprague-Dawley rats
Protocol: FIGS. 1A-E. Lung XOR induction following cytokine insufflation. Total lung and liver XOR activity was quantitated in the presence of NAD^+ in soluble desalted protein extracts from rats that were insufflated 24h before with saline, IL-1, IFN-γ or IL-1 and IFN-γ. […] IL-1 and IFN-γ insufflated rats had increased (**, p<0.02) lung (A), but not (p>0.05) liver (B), XOR activity compared to rats insufflated with saline, IL-1 (*, p<0.05), or IFN-γp>0.05). (C) Western immunoblot analysis of lung XOR from cytokine insufflated rats. Antibody to rat β-actin was used to control for gel loading. Gels were scanned with a Perkin-Elmer phosphoimager for semi-quantitation. Data are shown for two rats in each group. […] (D) The percentage of O-form XOR was quantitated in soluble protein extracts of cytokine insufflated rat lungs. […] Rats insufflated with IL-1 and IFN-γ had increased (*, p<0.05) lung O-form XOR activity compared to rats insufflated with saline, IL-1 or IFN-γ. […]
We quantitated the levels of O-form XOR in untreated or cytokine insufflated rat lungs. […] Soluble lung protein extracts from insufflated rats were exposed to 5 nM DTT at 37° C. for one hour and were re-chromatographed on sephadex G25 after which D-form and O-form content was re-measured. […]

[9] = target: T3, MNP XOR (Rattus norvegicus, UniProt P22985); assay: Cell transfer experiment: BALF cells treated in vitro and insufflated into control rats; type: in vivo; conditions: BALF cells exposed 15 min to 150 μM allopurinol in vitro, 2×10^6 cells insufflated into control rats, BALF 24 hours later, p<0.05 vs control cells (FIG. 5c)
T3 construct: endogenous in cells; host or cells: BALF cells / adherent mononuclear phagocytes from IL-1 and IFN-gamma insufflated Sprague-Dawley rats
Protocol: A lung inflammatory response was induced in rats with IL-1 and IFN-γ insufflation. After 8 hours, cells from BALF were recovered from each rat in PBS, pooled, and quantitated. Cells were then divided into two equivalent fractions and exposed to 1 mM KOH or 1 mM KOH with 150 μM allopurinol in vitro. The neutral pH of the PBS and cell mixture was unchanged by adding 1 mM KOH. After 15 min, the cells were washed and resuspended in PBS. Subsequently, 2×10^6 of control or allopurinol treated cells were insufflated into control rats. 24 hours after cell insufflation, BALF cells were recovered from these rats, Wright's stained and quantitated. […] Data are the mean and standard error of 6 rats in each group.
To determine whether XOR induction in MNP could contribute to lung inflammation, we performed a cell transfer experiment. We induced a pulmonary inflammatory response in rats with IL-1 and IFN-γ insufflation, obtained these cells by bronchoalveolar lavage 8 hours later, and then treated these cells with either allopurinol or the vehicle for allopurinol in vitro. After a 15 min exposure to allopurinol or the vehicle, the cells were washed, resuspended in PBS, and then insufflated into control rats. Subsequently, cells were harvested from the BALF of these control rats, stained, and quantitated.

[10] = test system: Id-2; assay: Western immunoblot of Id-2 from BALF cells; type: in vivo, rat; conditions: 24 hours following cytokine insufflation, allopurinol vs control fed rats
Protocol: Western immunoblot analysis of the differential inhibitor, Id-2, from BALF cells obtained 24 hours following cytokine insufflation in allopurinol (A) or control (C) fed rats.

[11] = test system: patients with chronic heart failure (CHF), cardiomyopathy, or undergoing heart surgery; conditions: cited from earlier work
[12] = test system: vascular endothelial function; conditions: Type 1 and Type 2 diabetes in humans; cited from earlier work
[13] = test system: superoxide generation; conditions: streptozotocin induced diabetes in mice; cited from earlier work
[14] = test system: pancreatic fibrosis; conditions: rats treated with diethyldithiocarbamate; cited from earlier work
[15] = test system: pancreatitis and vascular injury; conditions: L-arginine induced pancreatic inflammation in rats; cited from earlier work
[16] = test system: colonic leukocyte-chemokine expression and leukocyte accumulation; conditions: mice; cited from earlier work
[17] = test system: leukocyte-chemokine expression and leukocyte accumulation; conditions: endotoxemic model of liver injury; cited from earlier work
[18] = test system: acute gastric mucosal lesions; conditions: rats; cited from earlier work
[19] = test system: PMN accumulation in the eye; conditions: uveitis, even after the onset of disease; cited from earlier work
[20] = target: T4, XOR (Homo sapiens, UniProt P47989); conditions: COPD; cited from earlier work
T4 construct: host or cells: bronchoalveolar lavage fluid of COPD patients

[21] = test system: sarcoidosis; conditions: cited from earlier work
[22] = test system: endothelial injury in the lungs (and gut); conditions: heavy smokers and rats subjected to heavy smoking conditions; cited from earlier work
[23] = test system: vascular injury; conditions: mice, hemorrhagic shock or LPS injection, prior inhibition of XOR; cited from earlier work
[24] = test system: NADPH oxidase; conditions: even at relatively high doses; cited from earlier work

T1 sequence (P22985 whole entry): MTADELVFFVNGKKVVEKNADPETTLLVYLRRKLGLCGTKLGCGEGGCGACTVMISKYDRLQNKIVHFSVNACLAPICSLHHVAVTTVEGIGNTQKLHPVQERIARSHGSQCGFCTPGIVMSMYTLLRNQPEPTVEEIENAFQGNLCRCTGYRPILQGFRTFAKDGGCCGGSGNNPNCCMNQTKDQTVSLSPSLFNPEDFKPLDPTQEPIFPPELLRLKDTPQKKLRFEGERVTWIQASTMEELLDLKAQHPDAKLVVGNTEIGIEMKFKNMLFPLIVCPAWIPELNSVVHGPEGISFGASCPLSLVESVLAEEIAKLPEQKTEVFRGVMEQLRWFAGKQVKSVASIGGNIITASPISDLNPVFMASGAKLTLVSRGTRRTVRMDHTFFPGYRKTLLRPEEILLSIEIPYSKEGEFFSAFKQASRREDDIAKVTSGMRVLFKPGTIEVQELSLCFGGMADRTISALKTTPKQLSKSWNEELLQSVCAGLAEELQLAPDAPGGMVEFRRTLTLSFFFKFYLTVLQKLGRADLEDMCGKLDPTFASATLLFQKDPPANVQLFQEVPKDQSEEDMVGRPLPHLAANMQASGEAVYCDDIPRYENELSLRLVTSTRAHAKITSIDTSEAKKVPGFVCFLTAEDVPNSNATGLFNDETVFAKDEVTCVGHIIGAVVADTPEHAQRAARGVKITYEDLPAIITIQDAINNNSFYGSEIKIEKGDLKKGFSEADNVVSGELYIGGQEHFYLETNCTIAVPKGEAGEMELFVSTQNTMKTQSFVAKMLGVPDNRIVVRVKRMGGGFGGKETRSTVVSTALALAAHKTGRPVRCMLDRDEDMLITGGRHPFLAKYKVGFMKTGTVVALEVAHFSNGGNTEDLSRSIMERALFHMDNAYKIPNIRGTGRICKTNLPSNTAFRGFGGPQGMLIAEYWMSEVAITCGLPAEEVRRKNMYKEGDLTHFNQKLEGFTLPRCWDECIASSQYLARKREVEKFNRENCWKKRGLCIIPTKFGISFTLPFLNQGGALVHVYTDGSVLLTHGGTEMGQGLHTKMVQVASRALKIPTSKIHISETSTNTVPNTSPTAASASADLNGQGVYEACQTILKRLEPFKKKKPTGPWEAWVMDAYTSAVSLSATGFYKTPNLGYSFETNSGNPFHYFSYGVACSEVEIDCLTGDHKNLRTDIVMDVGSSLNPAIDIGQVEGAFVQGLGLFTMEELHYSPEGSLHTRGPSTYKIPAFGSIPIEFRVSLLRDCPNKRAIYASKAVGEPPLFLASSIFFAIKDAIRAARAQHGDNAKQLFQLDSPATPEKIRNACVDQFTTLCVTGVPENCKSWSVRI
T3 sequence (P22985 whole entry): as above
T2 sequence (P22985 whole entry): as above
T4 sequence (P47989 whole entry): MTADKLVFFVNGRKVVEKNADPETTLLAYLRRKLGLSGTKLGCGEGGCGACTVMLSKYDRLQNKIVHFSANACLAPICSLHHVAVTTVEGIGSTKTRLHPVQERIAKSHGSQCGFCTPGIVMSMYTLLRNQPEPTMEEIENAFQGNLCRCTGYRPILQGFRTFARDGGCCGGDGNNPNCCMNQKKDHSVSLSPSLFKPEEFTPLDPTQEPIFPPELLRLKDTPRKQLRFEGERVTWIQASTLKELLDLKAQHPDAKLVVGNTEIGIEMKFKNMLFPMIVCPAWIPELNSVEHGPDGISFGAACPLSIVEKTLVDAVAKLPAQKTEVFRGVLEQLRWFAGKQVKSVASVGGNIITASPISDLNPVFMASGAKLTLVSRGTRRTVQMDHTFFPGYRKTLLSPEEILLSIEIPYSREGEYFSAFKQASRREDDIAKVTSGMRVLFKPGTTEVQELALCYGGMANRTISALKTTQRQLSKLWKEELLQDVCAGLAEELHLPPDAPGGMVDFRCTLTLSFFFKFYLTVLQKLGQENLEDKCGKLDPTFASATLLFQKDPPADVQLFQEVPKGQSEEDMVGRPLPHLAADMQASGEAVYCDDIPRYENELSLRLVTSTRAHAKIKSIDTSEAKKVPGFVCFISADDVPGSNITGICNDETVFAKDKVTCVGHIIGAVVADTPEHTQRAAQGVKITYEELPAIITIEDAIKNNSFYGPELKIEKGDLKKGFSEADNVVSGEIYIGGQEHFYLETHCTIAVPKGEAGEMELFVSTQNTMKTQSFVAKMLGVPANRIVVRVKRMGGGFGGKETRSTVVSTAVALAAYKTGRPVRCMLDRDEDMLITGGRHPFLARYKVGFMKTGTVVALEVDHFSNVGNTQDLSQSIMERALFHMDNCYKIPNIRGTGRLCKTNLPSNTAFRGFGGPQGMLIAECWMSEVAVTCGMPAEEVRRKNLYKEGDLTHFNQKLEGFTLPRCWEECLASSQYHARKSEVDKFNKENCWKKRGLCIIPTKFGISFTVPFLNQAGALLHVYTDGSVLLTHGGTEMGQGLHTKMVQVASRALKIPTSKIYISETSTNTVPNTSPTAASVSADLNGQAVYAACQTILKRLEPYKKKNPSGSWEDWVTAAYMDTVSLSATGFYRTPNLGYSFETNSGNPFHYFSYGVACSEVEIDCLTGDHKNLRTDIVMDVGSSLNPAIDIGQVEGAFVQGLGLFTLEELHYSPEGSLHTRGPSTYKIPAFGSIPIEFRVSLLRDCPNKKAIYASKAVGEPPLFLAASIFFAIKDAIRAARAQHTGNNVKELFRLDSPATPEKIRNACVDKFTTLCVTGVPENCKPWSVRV

Molecule: [W] [tungsten]
- XOR activity in the lungs ([1]; tungsten diet before IL-1 and IFN-γ insufflation, 24 hours later, vs control diet (FIG. 4a)): decreased
- XOR activity in the BALF cells (MNP XOR activity) [2]: decreased
- accumulation of inflammatory cells (BALF cell numbers) [3]: reduced
- development of alveolar apoptosis (TUNEL positive alveolar nuclei) [4]: attenuated
- activation of caspase-3 in cytokine insufflated rat lungs [5]: blocked
- mononuclear cell infiltration and rejection signs ([6]; day 9 post-transplantation): significantly ameliorated
- NADPH-oxidase activity ([6]; renal allografts): without any effect
- XOR activity and ROS production ([6]; renal allografts): pronounced reduction
- histologic evidence of airway and perivascular inflammation [7]: attenuated

Molecule: O[C@H](CS)[C@H](O)CS (racemic) [DTT, dithiothreitol]
- O-form XOR after DTT reduction [8]: approximately 23 % of the total XOR

Molecule: Oc1ncnc2[nH]ncc12 [allopurinol]
- accumulation of inflammatory cells (BALF cell numbers) [3]: reduced
- development of alveolar apoptosis (TUNEL positive alveolar nuclei) [4]: attenuated
- activation of caspase-3 in cytokine insufflated rat lungs [5]: blocked
- recovery of neutrophils in the BALF after insufflation of treated BALF cells [9]: attenuated
- Id-2 from BALF cells (Western immunoblot) [10]: XOR dependent regulations of MNP Id-2 levels
- effect in patients with chronic heart failure, cardiomyopathy, or undergoing heart surgery [11]: cardio-protective effect
- vascular endothelial function [12]: protective
- superoxide generation [13]: normalized
- pancreatic fibrosis [14]: blocked
- evidence of pancreatitis and vascular injury [15]: blocked
- I/R induced colonic leukocyte-chemokine expression and leukocyte accumulation [16]: markedly reduced
- leukocyte-chemokine expression and leukocyte accumulation [17]: blocked
- markers of leukocyte infiltration in the gut [18]: decreased
- progression of experimentally induced acute gastric mucosal lesions [18]: blocked
- capacity to reduce PMN accumulation in the eye [19]: as effective as steroid treatment
- XOR and evidence of XOR derived oxidative stress [20]: reduced
- pulmonary sarcoidosis attributed to BCG vaccination ([21]; human): completely regressed
- sarcoidosis outcome ([21]; patients with sarcoidosis): induce remission
- endothelial injury in the lungs (and gut) [22]: reduce
- evidence of vascular injury [23]: dramatically attenuated
- scavenging of ROS generated from the NADPH oxidase [24]: fails to scavenge
- histologic evidence of airway and perivascular inflammation [7]: attenuated

B1: Recombinant rat interleukin-1-α (protein, UniProt P16598 115-270, looked up)
Interleukin-1 alpha: SAPHSFQNNLRYKLIRIVKQEFIMNDSLNQNIYVDMDRIHLKAASLNDLQLEVKFDMYAYSSGGDDSKYPVTLKVSNTQLFVSAQGEDKPVLLKEIPETPKLITGSETDLIFFWEKINSKNYFTSAAFPELLIATKEQSQVHLARGLPSMIDFQIS
notes: recombinant rat cytokine insufflated intratracheally to induce lung inflammation
- induction of total lung XOR activity [1]: approximate doubling
- lung O-form XOR content [1]: 57 % of the total XOR activity
- macrophages in BALF (differential analysis) [3]: ~20%
- neutrophils in BALF (differential analysis) [3]: approximately 80%

B2: interferon-y (protein, UniProt P01581 23-156, looked up)
Interferon gamma: QGTLIESLESLKNYFNSSSMDAMEGKSLLLDIWRNWQKDGNTKILESQIISFYLRLFEVLKDNQAISNNISVIESHLITNFFSNSKAKKDAFMSIAKFEVNNPQIQHKAVNELIRVIHQLSPESSLRKRKRSRC
notes: as for B1
- induction of total lung XOR activity [1]: negligible response
- lung O-form XOR content [1]: 52 % of the total XOR activity
- macrophages in BALF (differential analysis) [3]: ~20%
- neutrophils in BALF (differential analysis) [3]: approximately 80%

From patent publication US20070224287A1, “Methods of Modulating Inflammatory Reactions by Modulating Xanthine Oxidoreductase Activity” (priority 2003, published 2007)
